Assay results published in ChEMBL document CHEMBL3507680, “University of Dundee, Gates Library screen for HepG2 cell viability”.

Assay: Human HepG2 cell viability assay in 384 well format
Format: toxicity, cell-based
Parameters: dose 125 nL, time 70.5 hour; cytotoxicity at 70.5 h: concentration not given beside the values
Settings: HepG2 cells, read-out: Inhibition

| SMILES | cytotoxicity at 70.5 h |
| --- | --- |
| CCCc1nn(C2CCCN(C(C)C)C2=O)c(=O)o1 (stereo unspecified) | -9.22% |
| Cc1noc(CNc2ccccc2C(=O)N2CCCC(O)C2)n1 (stereo unspecified) | 5.5% |
| Cc1n[nH]c(C2CN(CCCOc3cccc(Cl)c3)CCO2)n1 (stereo unspecified) | -14.2% |
| CC(=O)N1CCC(CCNC(C)Cc2ccc(F)cc2)CC1 (stereo unspecified) | -13.1% |
| CC(CCSc1ccccc1)N1CCN(C(=O)c2cccs2)CC1 (stereo unspecified) | 35.4% |
| CC(CCSc1ccccc1)N1CCN(C(=O)c2ccccc2O)CC1 (stereo unspecified) | 36.1% |
| CNC(=O)C1CCN(Cc2cc3c(cc2O)CCC3)CC1 | 27% |
| c1ccn2cc(CN3CCCC(c4ccn[nH]4)C3)nc2c1 (stereo unspecified) | 25.3% |
| COC(=O)NCC(=O)NC1CC(C)(C)Cc2oc(C)cc21 (stereo unspecified) | 1.57% |
| CCNC(=O)N(Cc1cccc(OC)c1)C1CCC(O)CC1 (stereo unspecified) | 2.57% |
| CC(C)(C)c1cc(NC(=O)CN2CCCC2Cn2cncn2)on1 (stereo unspecified) | 21.1% |
| CCN(C(=O)c1ccc(-c2ccccc2)nc1C)C1CC(=O)NC1=O (stereo unspecified) | -5.68% |
| CC(C)(C)NS(=O)(=O)c1ccccc1CNCc1cccc(O)c1 | 3.89% |
| CC(C)NS(=O)(=O)c1ccccc1CNCc1cccc(O)c1 | -3.47% |
| O=C(c1ncoc1C1CCCO1)N1CCCC2(CCCCC2)C1 (stereo unspecified) | -2.37% |
| Cc1n[nH]c(C2CN(C(=O)c3cc(C)sc3C)CCO2)n1 (stereo unspecified) | -6.3% |
| CCC(NC(=O)Nc1ccc(OC)c(C)c1)c1ccncc1 (stereo unspecified) | -4.85% |
| O=C(NC1CC1)NC(c1ccc(F)cc1)C1CC1 (stereo unspecified) | -7.03% |
| O=C(NCCCOC1CCOC1)NC(C1CC1)C1CC1 (stereo unspecified) | 5.31% |
| CCC(c1ccccc1)N1CCN(C(=O)c2cc(C(N)=O)c[nH]2)CC1 (stereo unspecified) | -4.98% |
| O=C(Nc1cccn(CC(F)(F)F)c1=O)c1ccc(F)cc1 | 19.4% |
| Cc1ccc(C(C)(O)CNC(=O)c2sccc2Br)o1 (stereo unspecified) | 4.05% |
| O=C(Nc1nncs1)N(Cc1cccc(O)c1)C1CC1 | -4.79% |
| Cc1cccn2cc(CN3CCCC(O)C3)nc12 (stereo unspecified) | -2.97% |
| CC(C)OCCN1CCN(C(=O)c2cccc(-n3cccn3)n2)CC1 | -0.664% |

| SMILES | cytotoxicity at 70.5 h |
| --- | --- |
| COCCN(C)c1ccc(NCc2cscn2)nc1 | 24.9% |
| CCn1cc(CNc2ccc(N(C)CCOC)cn2)cn1 | -2.51% |
| CCC1CN(c2cnn(C)c(=O)c2Cl)CCO1 (stereo unspecified) | 5.82% |
| Cc1ncsc1CCN1CCN(C(=O)c2ccc(=O)[nH]c2)CC1 | -1.09% |
| O=C(NCCn1ccnc1)c1cccc(Br)c1 | -13% |
| O=C(NCCn1ccnc1)c1cc(Br)c[nH]1 | -8.18% |
| O=C(NCCn1ccnc1)c1cc(F)cc(Br)c1 | -8.01% |
| Cc1nc(C2(NCc3ccc(C#N)cc3F)CCCCC2)no1 | -1.37% |
| CNC(=O)c1ccc(=O)n(Cc2csc(N(C)C(C)=O)n2)c1 | -2.61% |
| CC(C)(C)CNS(=O)(=O)C1CS(=O)(=O)c2ccccc21 (stereo unspecified) | 16.6% |
| O=C(NCCn1ccnc1)c1csc(Br)c1 | 16.5% |
| N#CCCCS(=O)(=O)N1CCC(CSc2ccccc2)C1 (stereo unspecified) | -9.53% |
| O=C(NC1CCCN(c2ccc(OC(F)F)cc2)C1)c1ccon1 (stereo unspecified) | -1.24% |
| CSc1ccc(CNc2ccccc2CN2CCC(O)CC2)cc1 | -3.71% |
| O=C(Nc1ccccc1Cn1cncn1)C1CCN(C2CCCCC2)C1 (stereo unspecified) | -5.06% |
| O=C(NC1CCCN(c2ccc(OC(F)F)cc2)C1)c1cc[nH]n1 (stereo unspecified) | -11.9% |
| O=S(=O)(CCO)Cc1ccc(OC(F)F)cc1 | -5.07% |
| Cn1cc(C#N)cc1C(=O)NC1(C#N)CCSCC1 | -4.89% |
| CNC(=O)Cc1ccccc1NC(=O)C1CCN(C2CCCCC2)C1 (stereo unspecified) | -7.23% |
| Cc1cc(C(=O)NC2(C#N)CCSCC2)n(C)n1 | -5.82% |
| CC(C)c1nc2c(n1C)CCN(CC(=O)NCc1ccccn1)C2 | -0.491% |
| COc1cc(OC)cc(C2(O)CCN(Cc3nc(C)c(C)o3)CC2)c1 | 0.268% |
| Cc1ccc(CN(C(=O)NCC(c2cccs2)N(C)C)C2CC2)o1 (stereo unspecified) | -5.44% |
| COc1ccccc1C(=O)N1CCN(CCc2scnc2C)CC1 | -7.23% |
| Cc1cnc(CNc2ccccc2CN(C)C(=O)c2cccs2)o1 | 18.4% |

| SMILES | cytotoxicity at 70.5 h |
| --- | --- |
| CC1CCN(C(=O)C2CCN(c3ccc(Cl)cc3C#N)CC2)CC1 | -6.44% |
| Cc1ccc(OCc2nc(CNCCn3cccn3)cs2)cc1 | -2.86% |
| CC(C)COCCC(=O)Nc1cccnc1-n1cncn1 | -6.91% |
| COCCNC(=O)N1CCCC(COc2ccccc2)C1 (stereo unspecified) | 1.11% |
| Cc1ccc2nc(CNc3ccccc3C(=O)NC3CC3)cn2c1 | -4.35% |
| COc1ccc(C(=O)NCCN(C)C)c(I)c1 | 2.46% |
| COc1ccc(C(=O)NCCC(N)=O)c(I)c1 | 24.4% |
| CC(CO)(NC(=O)NCCc1ccc(Br)s1)C1CC1 (stereo unspecified) | -11% |
| Cc1cc(CNC(=O)NC(C)(CO)C2CC2)c(C)s1 (stereo unspecified) | -5.03% |
| NC(=O)CN(C(=O)C1Cc2cc(Cl)ccc2O1)C1CCCC1 (stereo unspecified) | 24.1% |
| Cc1csc(C2(NCc3csc(C4CC4)n3)CCCC2)n1 | -9.17% |
| c1csc(C2(NCc3csc(C4CC4)n3)CCCC2)n1 | -7.26% |
| Cc1noc(C)c1CCC(=O)N1CCn2cccc2C1C (stereo unspecified) | -0.947% |
| COCCCS(=O)(=O)N(Cc1cccc(C)c1)Cc1ccccn1 | 8.58% |
| CC(C)CCN1CCN(C(=O)c2c[nH]nn2)CC1 | 14% |
| CCN(CC)S(=O)(=O)N(Cc1ccccn1)Cc1ccccc1C | 43.2% |
| CCN(CC1CCOC1)C(=O)c1ccn(-c2ccc(OC)cc2)n1 (stereo unspecified) | -3.5% |
| COc1ccccc1CN(CC1CCCO1)C(=O)c1scnc1C (stereo unspecified) | -12.6% |
| Cc1cccnc1NC(=O)NC(CCO)C(C)(C)C (stereo unspecified) | -2.8% |
| CCN(CC1CCOC1)C(=O)c1cn2ccc(C)cc2n1 (stereo unspecified) | -16.3% |
| CC(C)(C)c1nc(CNC2CCN(S(C)(=O)=O)CC2)cs1 | -8.36% |
| CCc1nc(CNC2CCN(S(C)(=O)=O)CC2)cs1 | -0.997% |
| CC1CN(C)CCN1C(=O)Nc1nc(-c2ccco2)cs1 (stereo unspecified) | -13.7% |
| CC1CN(C)CCN1C(=O)Nc1nc(-c2cccn2C)cs1 (stereo unspecified) | -13.9% |
| Cn1cnnc1CCNC(=O)c1cnn(Cc2ccccc2)c1 | -14.9% |

| SMILES | cytotoxicity at 70.5 h |
| --- | --- |
| CCC1CN(C)c2ccccc2CN1C(=O)Nc1ccc(C)cc1 (stereo unspecified) | -2.3% |
| COc1ccc(CNc2cccnc2-n2cccn2)cc1OC | -14.2% |
| COc1ccc(C)cc1-n1ccc(C(=O)NCC2CCCOC2)n1 (stereo unspecified) | -11.7% |
| COc1cc(CN(C)CCc2ccncc2)c(SC)cc1OC | -7.73% |
| COc1cc(CN(C)Cc2ccncc2)c(SC)cc1OC | -10.7% |
| CC(C)CCN1CCN(C(=O)c2cnccn2)CC1 | 18.6% |
| CCN(CC1CCOC1)C(=O)c1ccn(-c2cc(C)ccc2OC)n1 (stereo unspecified) | -2.72% |
| CN(C)c1ccc(CN(CC2CCCO2)C(=O)c2csnn2)cc1 (stereo unspecified) | -14.8% |
| CCN(CC)S(=O)(=O)c1ccc(CNc2cc(C)nc(C)n2)cc1 | -12.1% |
| Fc1ccc(OCCNC2CCN(Cc3ccccn3)CC2)c(F)c1 | 20.2% |
| N#Cc1ccc(NCC(O)c2ccco2)c(C(F)(F)F)c1 (stereo unspecified) | -6.87% |
| CN(CCN1CCOC1=O)CC(=O)Nc1ccc(Cl)c(C(F)(F)F)c1 | -22% |
| COCC(C)NC(=O)CSc1ccc(F)c(Cl)c1 (stereo unspecified) | 12% |
| Cc1ccc(C(CNCc2cccc3c2OCO3)N2CCOCC2)o1 (stereo unspecified) | -17% |
| CC(=O)N1CCC(C(=O)NCc2ncc(-c3ccccc3)o2)CC1 | -14.2% |
| O=C(NCc1ncc(-c2ccccc2)o1)NC1CCC(O)CC1 (stereo unspecified) | -7.39% |
| Clc1snnc1CN1CCN(c2nccs2)CC1 | -13.7% |
| CC(CNC(=O)c1cn(-c2ccccc2)nn1)Cn1cccn1 (stereo unspecified) | 13.9% |
| Cc1ccc(-n2cc(C(=O)NCC(C)Cn3cccn3)nn2)cc1 (stereo unspecified) | -14.5% |
| CN(CCC#N)C(=O)Cn1nnnc1C(C)(C)C | -16.8% |
| CS(=O)(=O)CCC(=O)NC1(c2cccc(C(F)(F)F)c2)CCC1 | -24.7% |
| Cc1ccnc(NC(=O)C2CCN(CCCc3cn[nH]c3)CC2)c1 | -14.2% |
| CCC(C(=O)Nc1ccc(-c2nc(C)n[nH]2)cc1)N1CCCC1=O (stereo unspecified) | -9.81% |
| Cc1cccc2c1NC1(CCOCC1)NC2=O | -26.4% |
| CCN1CCc2c(cccc2NC(=O)N(C)C2CCSC2)C1 (stereo unspecified) | -10.8% |

| SMILES | cytotoxicity at 70.5 h |
| --- | --- |
| CCN1CCN(c2ccccc2NC(=O)N(C)C2CCSC2)CC1 (stereo unspecified) | -13.8% |
| CCC(C(=O)Nc1ccc2c(C)n[nH]c2c1)N1CCCC1=O (stereo unspecified) | 21.5% |
| CC(=O)NCCNC(=O)c1cc(C)ccc1SC1CCCC1 | -11.6% |
| Cc1ccnc(NC(=O)C2CCN(CCCn3ccnc3C)CC2)c1 | -13% |
| O=S(=O)(Cc1ccc(F)cc1F)NCCOc1cccnc1 | -18.9% |
| Cc1ccc(SC2CCCC2)c(C(=O)NCCO)c1 | -23.4% |
| CC(O)CNc1ccc(C#N)cc1C(F)(F)F (stereo unspecified) | -12.9% |
| O=C(CCC1CCCO1)NCCc1ccccn1 (stereo unspecified) | -10% |
| Cc1csc(N2CCN(Cc3nnsc3Cl)CC2C)n1 (stereo unspecified) | -16% |
| CCn1c(CN(C)Cc2cnc(C)s2)nc2cc(F)ccc21 | 10.8% |
| CC1CN(Cc2nnsc2Cl)CCN1c1nccs1 (stereo unspecified) | -19.1% |
| CO[C@H]1CN(C(=O)OC(C)(C)C)CC1NCc1ccn(C)c1 (stereo partly specified) | -6.04% |
| c1csc(C(CNCc2cccc3c2OCO3)N2CCOCC2)c1 (stereo unspecified) | -13.2% |
| NC(=O)c1cccc(CCNCc2cnc(C3CCC3)s2)c1 | 7.84% |
| Cc1nn(C)c(C)c1NC(=O)CN1CCCC1c1noc(C2CC2)n1 (stereo unspecified) | 8.6% |
| CS(=O)(=O)c1ccccc1C(=O)NCC1Cc2ccccc2O1 (stereo unspecified) | -4.69% |
| Cc1nccn1-c1cc(CNC(=O)C(C)(C)C)ccn1 | -4.88% |
| Cc1nccn1-c1cc(CNC(=O)c2ccccn2)ccn1 | -4.56% |
| CCCOc1ccc(NC(=O)NCCC(=O)N(C)C)cc1Cl | -4.39% |
| N#Cc1ccc(CNCC2CCN(CCO)CC2)cc1 | -5.67% |
| O=C(CCc1nccs1)N1CCC(N2CCNC2=O)CC1 | -3.7% |
